Consider one molecule from patent US20250108064A1, “PHOSPHATE PRODRUGS OF CANNABINOIDS” (priority 2021, published 2025).

Common to all, as to assay type: in vitro ADME
The nature of series [1]: Liver microsome stability assay (HLM). The following applies: human, microsomes, pH 7.4; 3 μM test compound, NADPH; read-out: T½ in HLM. In outline:
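Compound (3 μM) incubated with human or mouse liver microsomes in 100 mM phosphate pH 7.4, started with NADPH; minus-NADPH controls included. Samples taken at 0, 5, 10, 15 and 30 min, quenched in cold methanol and analysed by LC-MS/MS. T1/2 = 0.693/k from ln % remaining vs time.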
On the technique in general: Liver microsomes are a subcellular fraction often used to study metabolism.

Series [2] is described as follows: Plasma stability (mouse plasma). The following applies: read-out: T½ in mouse plasma (converted).
Series [3] can be described thus: Liver microsome stability assay (MLM). The note with it: mouse, mouse liver microsomes, pH 7.4; 3 μM test compound, NADPH; read-out: T 1/2 in MLM. Here is the method:
General Experimental: Human and mouse liver microsomes were purchased from Xenotech at 20 mg/mL. NADPH (Sigma-Aldrich) 10 mM stocks were prepared in deionized water.
Procedure for Liver Microsome Stability Assay: Test compounds and positive controls were dissolved in 100% DMSO to make 10 mM stock solutions. Verapamil (Sigma-Aldrich) and diphenhydramine (Sigma-Aldrich) were used as positive controls for both human liver microsomes (HLM) and mouse liver microsomes (MLM). The 10 mM stock solutions of test and control compounds were further diluted in potassium phosphate buffer (100 mM, pH 7.4) to 500 μM to ensure that the organic solvent content was <0.2%. The liver microsome (HLM or MLM) assay was prepared in a 1.5 mL Eppendorf tube with a final volume of 1100 μL for duplicate runs. Each reaction contained phosphate buffer (928.4 μL), liver microsomes (55 μL), and test compound (6.6 μL of 500 μM), resulting in a final concentration of 3 μM for the test compound. The reaction was initiated with 110 μL of 10 mM NADPH. Aliquots (100 μL) were removed in duplicate at 0, 5, 10, 15, and 30 min and quenched in […] of 100% cold methanol which contained internal standard (ISTD: d5-7-ethoxy coumarin 2 μM). The aliquots were centrifuged at 12,000 g for 5 min, and the supernatant was transferred and placed in an LC-MS vial. Each time point was assessed by LC-MS/MS, and the area under the m/z curve (AUC), based on the MRM transition, was integrated w.r.t the ISTD. Positive controls were conducted at a final volume of 550 μL to enable a single run for each time point. Negative controls in the absence of NADPH were performed with the test and control compounds, respectively, at a final volume of 150 μL and measured at the most prolonged time point. Control compounds were processed and analyzed like test compounds. […] Half-life (T1/2) was calculated using the data obtained from LC-MS/MS and by plotting ln (% remaining of the parent prodrug) versus time and performing linear regression to determine slope. […]

For the molecule `C=C(C)[C@@H]1CCC(C)=C[C@H]1c1c(O)cc(CCCCC)cc1OC(=O)C1(OP(=O)(O)O)CC1.N.N` [7b, 1-((((1′R,2′R)-6-hydroxy-5′-methyl-4-pentyl-2′-(prop-1-en-2-yl)-1′,2′,3′,4′-tetrahydro-[1,1′-biphenyl]-2-yl)oxy)carbonyl)cyclopropyl phosphate di-ammonium salt], the half-life in series [1] was 2.62 h; in series [2] it was 3.7 h. The half-life at 3 μM in series [3] was 0.55 h.
